Laboratory results from publication PMC6627698, “Redesigning Arenicin-1, an Antimicrobial Peptide from the Marine Polychaeta Arenicola marina, by Strand Rearrangement or Branching, Substitution of Specific Residues, and Backbone Linearization or Cyclization” (Marine Drugs, 2019).
Residues, ends and D or L forms follow the SMILES beside them.

Columns and labels:
[1] = test system: Acinetobacter baumanii c.i.; assay type: cell-based, Acinetobacter baumannii; settings: 18 h
Excerpt: (§1) E. coli ML35p, Listeria monocytogenes EGD, methicillin-resistant Staphylococcus aureus (MRSA) ATCC 33591 were kindly provided by Prof. Robert Lehrer (University of California, Los Angeles, CA, USA); E. coli ATCC 25922, E. coli M15, Pseudomonas aeruginosa ATCC 27853, S. aureus ATCC 25923 were provided by Dr. Elena Ermolenko (Institute of Experimental Medicine, St-Petersburg, Russia); drug-resistant clinical isolates were provided by Prof. Gennadiy Afinogenov (Saint Petersburg State University, Russia); S. aureus 710A has been described previously. The following clinical isolates of bacteria were used: P.s aeruginosa resistant to aztreonam, ceftazidime, cefotaxime (obtained from the urine of a patient with cystitis), Acinetobacter baumannii resistant to meropenem (from an infected wound); Staphylococcus intermedius (from an infected wound caused by a dog bite) resistant to ciprofloxacin, cefuroxime, clindamycin, erythromycin, rifampin, gentamicin, benzylpenicillin, oxacillin.
(§2) This assay was applied to determine the MIC, according to the guidelines of the Clinical and Laboratory Standards Institute, using Mueller Hinton (MH) Broth. We prepared 2x stocks of peptides and serially diluted them in sterile PBS instead of Mueller Hinton Broth, so that the treatment of the bacteria with the peptides was carried out in a medium containing 50% of MH and 50% of PBS, as described. The overnight cultures of each strain were transferred to fresh MH media and further incubated to obtain a mid-logarithmic-growth-phase culture of bacteria. The absorbance of each bacterial suspension was measured at 620 nm, and bacteria were then diluted to approximately 2 × 10^5 CFU/mL. Then, 50 µL of the suspensions were mixed with 50 µL of the peptide dilutions in the wells of a microtiter plate (pre-treated for 1 h at 37 °C with 0.2% bovine serum albumin (BSA) in water, sterilized by filtration, to diminish the non-specific binding of the peptides to the plastic surfaces).

P. aeruginosa c.i. = assay type: cell-based, Pseudomonas aeruginosa; settings: 18 h
Excerpt: as §1, §2

[2] = test system: set of Gram-negative and Gram-positive bacteria, including drug-resistant clinical isolates; assay type: cell-based; settings: 12 strains; median MICs used; MIC > 16 µM taken as 32 µM
Procedure: To obtain a global assessment of the effect on antimicrobial activity, the geometric mean of the MIC (G-MIC) was calculated, and from this, the overall improvement or impoverishment with respect to arenicin-1. In general, inverting the symmetry or decreasing the charge had detrimental effects.
The overall activity against a set of tested bacterial strains was determined by way of the commonly used geometric mean of measured MIC values. […] At the same time, the geometric mean can still discriminate antimicrobial agents showing minor variations in activity; in other words, it has a better “resolution” than the median MIC (MIC50). Some mathematical basics for choosing the geometric mean for antimicrobial activity comparison are further discussed in the Supplementary Chapter S3.

[3] = test system: Staphylococcus intermidius; assay type: cell-based, Staphylococcus intermedius; settings: 18 h
Excerpt: as §1, §2

[4] = test system: human erythroleukemia K-562 cells; assay type: cell-based; settings: 24 h
Procedure: The standard MTT ((3-(4,5-Dimethylthiazol-2-yl)-2,5-diphenyltetrazolium bromide) test was used for the examination of the cytotoxic activity of AMPs towards human erithroleukemia cells K-562. The cells were purchased from Biolot (Saint Petersburg, Russia) and were grown in RPMI 1640 medium (Biolot, Saint Petersburg, Russia) supplemented with glutamine and 10% FCS. Before the experiment, the culturing medium was replaced with serum-free RPMI 1640. Serial dilutions of the peptides in RPMI were plated in sterile 96-well microplates, and the target cells were dispensed to the microplates (10^5 cells/well in RPMI 1640). The plates were incubated for 24 h at 37 °C under 5% CO2. Cell-free media and cells incubated without peptides served as controls. Four hours before the incubation ended, MTT in PBS (5 mg/mL) was added to each well. After the incubation was stopped by adding isopropanol/ 0.04 M HCl, the optical density was measured at 540 nm, subtracting the background absorbance at 690 nm. Toxicity was determined by nonlinear regression analysis of the corresponding dose–response curves using the Sigma Plot 11 program to calculate the IC50 values (the concentration of the test substance that reduced the OD540 capacity by 50%).

[5] = test system: Pseudomonas aeruginosa ATCC 27853; assay type: cell-based; settings: ATCC 27853, 18 h
Excerpt: as §1, §2

Escherichia coli ML35p = assay type: cell-based; settings: broth microdilution, 50% Mueller Hinton broth / 50% PBS, 18 h at 37 °C, median of 3–5 experiments in triplicates
Excerpt: as §1, §2

[6] = test system: Listeria monocytogenes EGD; assay type: cell-based; settings: 18 h
Excerpt: as §1, §2

[7] = test system: Staphylococcus aureus 710A; assay type: cell-based; settings: 18 h
Excerpt: as §1, §2

E. coli M15 = assay type: cell-based, Escherichia coli; settings: M15, 18 h
Excerpt: as §1, §2

E. coli ATCC 25922 = assay type: cell-based, Escherichia coli; settings: ATCC 25922, 18 h
Excerpt: as §1, §2

MRSA ATCC 33591 = assay type: cell-based, Staphylococcus aureus; settings: ATCC 33591, 18 h
Excerpt: as §1, §2

S. aureus ATCC 25923 = assay type: cell-based, Staphylococcus aureus; settings: ATCC 25923, 18 h
Excerpt: as §1, §2

S. aureus c.i. = assay type: cell-based, Staphylococcus aureus; settings: 18 h
Excerpt: as §1, §2

SMILES	Minimal Inhibitory Concentrations (MIC) [1] [µM]	Minimal Inhibitory Concentrations (MIC) (P. aeruginosa c.i.) [µM]	G-MIC (geometric mean of all determined MICs) [2] [µM]	Minimal Inhibitory Concentrations (MIC) [3] [µM]	IC50 [4] [µM]	Minimal Inhibitory Concentrations (MIC) [5] [µM]	Minimal Inhibitory Concentrations (MIC) (Escherichia coli ML35p) [µM]	Minimal Inhibitory Concentrations (MIC) [6] [µM]	Minimal Inhibitory Concentrations (MIC) [7] [µM]	Minimal Inhibitory Concentrations (MIC) (E. coli M15) [µM]	Minimal Inhibitory Concentrations (MIC) (E. coli ATCC 25922) [µM]	Minimal Inhibitory Concentrations (MIC) (MRSA ATCC 33591) [µM]	Minimal Inhibitory Concentrations (MIC) (S. aureus ATCC 25923) [µM]	Minimal Inhibitory Concentrations (MIC) (S. aureus c.i.) [µM]
CC(C)C[C@@H]1NC(=O)[C@H](C(C)C)NC(=O)[C@H](CCCNC(=N)N)NC(=O)[C@H](Cc2ccc(O)cc2)NC(=O)[C@H](CCCNC(=N)N)NC(=O)[C@H](CCCNC(=N)N)NC(=O)[C@@H](NC(=O)[C@@H](N)Cc2c[nH]c3ccccc23)CSSC[C@H](NC(=O)[C@@H](N)Cc2c[nH]c3ccccc23)C(=O)N[C@@H](CCCNC(=N)N)C(=O)N[C@@H](CCCNC(=N)N)C(=O)N[C@@H](Cc2ccc(O)cc2)C(=O)N[C@@H](CCCNC(=N)N)C(=O)N[C@@H](C(C)C)C(=O)N[C@@H](CC(C)C)C(=O)N[C@@H](C(C)C)C(=O)N[C@H](C(=O)N[C@@H](CN)C(N)=O)CCCNC(=O)[C@H](C(C)C)NC1=O [ARs-C-B] (HELM PEPTIDE1{W.C.R.R.Y.R.V.L.V.[Orn].[NC[C@H](N[*:1])C(=O)[*:2]].[am]}|PEPTIDE2{W.C.R.R.Y.R.V.L.V}$PEPTIDE1,PEPTIDE2,2:R3-2:R3|PEPTIDE1,PEPTIDE2,10:R3-9:R2$$$V2.0; N-terminus assumed)	8 to 16	16	4.4	4	39	1	1 to 2	2	4	8	4	8	4	4 to 8
CC(C)C[C@@H]1NC(=O)[C@H](C(C)C)NC(=O)CNC(=O)[C@H](CCCNC(=N)N)NC(=O)[C@H](C(C)C)NC(=O)[C@H](CC(C)C)NC(=O)[C@H](C(C)C)NC(=O)[C@H](CCCNC(=N)N)NC(=O)[C@H](Cc2ccc(O)cc2)NC(=O)[C@H](CCCNC(=N)N)NC(=O)[C@H](CCCNC(=N)N)NC(=O)[C@@H](NC(=O)[C@@H](N)Cc2c[nH]c3ccccc23)CSSC[C@@H](C(=O)N[C@@H](Cc2c[nH]c3ccccc23)C(=O)O)NC(=O)[C@H](CCCNC(=N)N)NC(=O)[C@H](CCCNC(=N)N)NC(=O)[C@H](Cc2ccc(O)cc2)NC(=O)[C@H](CCCNC(=N)N)NC(=O)[C@H](C(C)C)NC1=O [ARs-C] (HELM PEPTIDE1{W.C.R.R.Y.R.V.L.V.R.G.V.L.V.R.Y.R.R.C.W}$PEPTIDE1,PEPTIDE1,2:R3-19:R3$$$V2.0; N-terminus assumed)	2	16	3.2	8	11.6	1	1	1	2 to 4	2	2	4 to 8	4	16
CC(C)[C@@H]1NC(=O)[C@H](CCCNC(=N)N)NC(=O)[C@H](C(C)C)NC(=O)[C@H](Cc2ccc(O)cc2)NC(=O)[C@H](C)NC(=O)[C@H](Cc2ccc(O)cc2)NC(=O)[C@H](C(C)C)NC(=O)[C@@H](NC(=O)[C@H](Cc2c[nH]c3ccccc23)NC(=O)[C@@H](N)CCCNC(=N)N)CSSC[C@H](NC(=O)[C@H](Cc2c[nH]c3ccccc23)NC(=O)[C@@H](N)CCCNC(=N)N)C(=O)N[C@@H](C(C)C)C(=O)N[C@@H](Cc2ccc(O)cc2)C(=O)N[C@@H](C)C(=O)N[C@@H](Cc2ccc(O)cc2)C(=O)N[C@@H](C(C)C)C(=O)N[C@@H](CCCNC(=N)N)C(=O)N[C@@H](C(C)C)C(=O)N[C@H](C(=O)N[C@@H](CN)C(N)=O)CCCNC1=O [ARs-N-B] (HELM PEPTIDE1{R.W.C.V.Y.A.Y.V.R.V.[Orn].[NC[C@H](N[*:1])C(=O)[*:2]].[am]}|PEPTIDE2{R.W.C.V.Y.A.Y.V.R.V}$PEPTIDE1,PEPTIDE2,3:R3-3:R3|PEPTIDE1,PEPTIDE2,11:R3-10:R2$$$V2.0)	4	16	5.9	8	35.1	2	4	2 to 4	8	4	8	8	8	8
CC(C)[C@@H]1NC(=O)CNC(=O)[C@H](CCCNC(=N)N)NC(=O)[C@H](C(C)C)NC(=O)[C@H](CCCNC(=N)N)NC(=O)[C@H](C(C)C)NC(=O)[C@H](Cc2ccc(O)cc2)NC(=O)[C@H](C)NC(=O)[C@H](Cc2ccc(O)cc2)NC(=O)[C@H](C(C)C)NC(=O)[C@@H](NC(=O)[C@H](Cc2c[nH]c3ccccc23)NC(=O)[C@H](CCCNC(=N)N)NC(=O)[C@@H](N)CCCNC(=N)N)CSSC[C@@H](C(=O)N[C@@H](Cc2c[nH]c3ccccc23)C(=O)O)NC(=O)[C@H](C(C)C)NC(=O)[C@H](Cc2ccc(O)cc2)NC(=O)[C@H](C)NC(=O)[C@H](Cc2ccc(O)cc2)NC(=O)[C@H](C(C)C)NC(=O)[C@H](CCCNC(=N)N)NC1=O [ARs-N] (HELM PEPTIDE1{R.R.W.C.V.Y.A.Y.V.R.V.R.G.V.R.V.Y.A.Y.V.C.W}$PEPTIDE1,PEPTIDE1,4:R3-21:R3$$$V2.0; N-terminus assumed)	>16	>16	≥26.9	>16	18	>16	16	8	>16	>16	>16	>16	>16	>16
